Data from publication PMC6213900, “Design, Synthesis, and Cytotoxic Analysis of Novel Hederagenin–Pyrazine Derivatives Based on Partial Least Squares Discriminant Analysis” (International Journal of Molecular Sciences, 2018).

Tests used:
[1] = tested on: A549 (human non-small-cell lung cancer); experiment: MTT cytotoxicity assay, A549; assay type: cell-based; details: Homo sapiens, A549, 72 h treatment, read-out: Half Maximal Inhibitory Concentration (IC50) A549
Method in brief: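 Cells seeded at 3 × 10^3/well in DMEM/10% FBS, then treated 72 h with 3.125–50 μM compound in DMSO. MTT (5 mg/mL) added for 4 h, formazan dissolved in DMSO, absorbance read at 490 nm; inhibition relative to untreated control, IC50 as 50% growth inhibition, triplicate runs.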

[2] = tested on: A549 cells; experiment: Giemsa staining, morphological detection of apoptosis; assay type: cell-based, human; details: 72 h
Method: With an increase in dose, the phenomenon of cell shrinkage and cell disruption became more obvious.
A549 cells in the logarithmic growth phase were seeded in 12-well plates (1.2 × 10^4 cells/well). After incubation for 24 h at 37 °C with 5% CO2, various concentrations (0, 2, 4, or 6 μM) of compound 9 were added to the cultures, and the plate was incubated for further 72 h. Then, we discarded the cell culture fluid, washed twice with phosphate-buffered saline (PBS), and fixed the cells with cold methanol. The A549 cells were stained with 6% Giemsa solution for 5 min, washed with water, and dried. The cell morphological changes were observed under an inverted microscope.

[3] = tested on: A549 cells; experiment: Cell-cycle analysis by PI staining, flow cytometry; assay type: cell-based, human; details: 72 h
Method: The remarkable activity of compound 9 against the A549 cell line prompted us to investigate its effect on the cell cycle of A549 by flow cytometry.
According to instructions, A549 cells were stained with the Cell Cycle and Apoptosis Analysis Kit (Beyotime Biotechnology, Shanghai, China). A549 cells in the logarithmic growth phase were seeded in six-well plates (4.8 × 10^4 cells/well). After incubation for 24 h at 37 °C with 5% CO2, various concentrations (0, 2, 5, or 10 μM) of compound 9 were added to the cultures, and the plate was incubated for a further 72 h. A549 cells were collected, washed twice with cold PBS, and centrifuged at 2400 rpm for 10 min. The resulting pellet was mixed with 1 mL of 70% ethanol, and retained for 12 h at 4 °C, before being centrifuged at 2400 rpm for 10 min. The supernatant was discarded, and the resulting pellet was mixed with 1mL of cold PBS and centrifuged at 2400 rpm for 10 min. Then, 0.5 mL of PI staining solution was added and mixed gently. After incubation at 37 °C for 30 min, the cells were immediately analyzed with a flow cytometer at 488 nm.

Cc1cncc(C(=O)OCCOC(=O)[C@]23CCC(C)(C)CC2C2=CCC4[C@@]5(C)CC[C@H](O)[C@@](C)(CO)C5CC[C@@]4(C)[C@]2(C)CC3)n1 (stereo partly drawn) [Compound 9, 2-(((4aS,6aS,6bR,9R,10S,12aR)-10-Hydroxy-9-(hydroxymethyl)-2,2,6a,6b,9,12a-hexamethyl-1,2,3,4,4a,5,6,6a,6b,7,8,8a,9,10,11,12,12a,12b,13,14b-icosahydropicene-4a-carbonyl)oxy)ethyl-6-methylpyrazine-2-carboxylate]
IC50 [1]: 3.45 ± 0.59 µM
cell morphology, Giemsa staining ([2]; 2 μM): the cells had a lot of puffing and fragmentation
cell morphology, Giemsa staining ([2]; 6 μM): almost no normal cell morphology
cells in G1 phase ([3]; 2 μM): 57.46%
cells in G2 phase ([3]; 2 μM): 8.37%
cells in S phase ([3]; 2 μM): 34.17%
cells in G1 phase ([3]; 5 μM): 53.44%
cells in G2 phase ([3]; 5 μM): 0.00%
cells in S phase ([3]; 5 μM): 46.56%
cells in G1 phase ([3]; 10 μM): 39.54%
cells in G2 phase ([3]; 10 μM): 0.00%
cells in S phase ([3]; 10 μM): 60.46%
